Biological target: T1, 11β-HSD 1 (Homo sapiens, UniProt P28845)
T1 construct: detecting cortisol generated from cortisterone by human liver microsomes; from tissue; host or cells: human liver microsomes
Assay: In vitro inhibition of 11β-HSD 1, HTRF detection of cortisol generated by human liver microsomes
Type: biochemical
Settings: 1 μM test compound, 100% indicates no inhibition, zero or below zero indicates complete inhibition (relative to carbenoxolone)
Outline: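 Human liver microsomes with test compound were incubated 1 h at 37 °C in Tris buffer, pH 6.0, with 200 μM NADPH and 80 nM cortisone. Cortisol formed was detected by competitive HTRF immunoassay (665/615 nm ratio) and calibrated against a cortisol standard curve. Values are activities at 1 μM compound relative to carbenoxolone, where 100% indicates no inhibition.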

T1 sequence (P28845 whole entry): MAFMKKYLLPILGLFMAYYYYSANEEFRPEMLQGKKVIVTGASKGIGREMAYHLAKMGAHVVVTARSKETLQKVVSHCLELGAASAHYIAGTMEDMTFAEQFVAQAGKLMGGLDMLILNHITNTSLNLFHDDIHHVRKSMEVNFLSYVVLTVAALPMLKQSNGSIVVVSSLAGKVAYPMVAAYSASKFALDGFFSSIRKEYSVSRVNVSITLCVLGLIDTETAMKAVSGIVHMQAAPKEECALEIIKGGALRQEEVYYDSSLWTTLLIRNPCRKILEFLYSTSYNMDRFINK

| SMILES | Inhibitory activity on 11β-HSD 1, % CTL [% CTL] |
| --- | --- |
| O=C(c1ccc2c(c1)OCCO2)N1C2CCC1CC(c1ccc(F)c(Cl)c1)C2 (stereo not drawn) [Example 148, [3-(3-Chloro-4-fluoro-phenyl)-8-aza-bicyclo[3.2.1]oct-8-yl]-(2,3-dihydro-benzo[1,4]dioxin-6-yl)-methanone] | −48 |
| NC(=O)c1cccc(C2CC3CCC(C2)N3C(=O)c2ccc3c(c2)OCCO3)c1 (stereo not drawn) [Example 149, 3-[8-(2,3-Dihydro-benzo[1,4]dioxine-6-carbonyl)-8-aza-bicyclo[3.2.1]oct-3-yl]-benzamide] | 30 |
| O=C(c1ccc2c(c1)OCCO2)N1C2CCC1CC(c1cccc(-c3ccccc3)c1)C2 (stereo not drawn) [Example 150, (3-Biphenyl-3-yl-8-aza-bicyclo[3.2.1]oct-8-yl)-(2,3-dihydro-benzo[1,4]dioxin-6-yl)-methanone] | 62 |
| O=C(c1ccc2c(c1)OCCO2)N1C2CCC1CC(c1ccc(Cl)cc1)C2 (stereo not drawn) [Example 151, [3-(4-Chloro-phenyl)-8-aza-bicyclo[3.2.1]oct-8-yl]-(2,3-dihydro-benzo[1,4]dioxin-6-yl)-methanone] | −44 |
| O=C(c1ccc2c(c1)OCCO2)N1[C@@H]2CC[C@H]1C[C@@H](c1ccc(Oc3ccccc3)cc1)C2 [Example 152, endo-(2,3-Dihydro-benzo[1 ,4]dioxin-6-yl)-[3-(4-phenoxy-phenyl)-8-aza-bicyclo[3.2.1]oct-8-yl]-methanone] | 5 |
| O=C(c1ccc2c(c1)OCCO2)N1[C@@H]2CC[C@H]1C[C@@H](c1cccnc1)C2 [Example 153, endo-(2,3-Dihydro-benzo[1,4]dioxin-6-yl)-(3-pyridin-3-yl-8-aza-bicyclo[3.2.1]oct-8-yl)-methanone] | −4 |
| COC(=O)c1ccc([C@H]2C[C@H]3CC[C@@H](C2)N3C(=O)c2ccc3c(c2)OCCO3)cc1 [Example 154] | 59 |
| O=C(c1ccc2c(c1)OCCO2)N1[C@@H]2CC[C@H]1C[C@@H](c1ccc(Br)cc1)C2 [Example 155, endo-[3-(4-Bromo-phenyl)-8-aza-icyclo[3.2.1]oct-8-yl]-(2,3-dihydro-benzo[1,4]dioxin-6-yl)-methanone] | −17 |
| COc1ccccc1[C@H]1C[C@H]2CC[C@@H](C1)N2C(=O)c1ccc2c(c1)OCCO2 [Example 156, endo-(2,3-Dihydro-benzo[1,4]dioxin-6-yl)-[3-(2-methoxy-phenyl)-8-aza-bicyclo[3.2.1]oct-8-yl]-methanone] | −13 |
| O=C(c1ccc2c(c1)OCCO2)N1[C@@H]2CC[C@H]1C[C@@H](c1ccc3ccccc3c1)C2 [Example 157, endo-(2,3-Dihydro-benzo[1,4]dioxin-6-yl)-(3-naphthalen-2-yl-8-aza-bicyclo[3.2.1]oct-8-yl)-methanone] | 38 |
| O=C(O)c1ccc([C@H]2C[C@H]3CC[C@@H](C2)N3C(=O)c2ccc3c(c2)OCCO3)cc1 [Example 158, endo-4-[8-(2,3-Dihydro-enzo[1,4]dioxine-6-carbonyl)-8-aza-bicyclo[3.2.1]oct-3-yl]-benzoic acid] | 86 |
| O=C(c1ccc2c(c1)OCCO2)N1[C@@H]2CC[C@H]1C[C@@H](c1ccccc1O)C2 [Example 159, endo-(2,3-Dihydro-benzo[1,4]dioxin-6-yl)-[3-(2-hydroxy-phenyl)-8-aza-bicyclo[3.2.1]oct-8-yl]-methanone] | −55 |
| O=C(c1ccc2c(c1)OCCO2)N1[C@@H]2CC[C@H]1C[C@@H](c1ccc(F)cc1F)C2 [Example 160, endo-[3-(2,4-Difluoro-phenyl)-8-aza-bicyclo[3.2.1]oct-8-yl]-(2,3-dihydro-benzo[1,4]dioxin-6-yl)-methanone] | −26 |
| O=C(c1ccc2c(c1)OCCO2)N1[C@@H]2CC[C@H]1C[C@@H](c1c(F)cccc1F)C2 [Example 161, endo-[3-(2,6-Difluoro-phenyl)-8-aza-bicyclo[3.2.1]oct-8-yl]-(2,3-dihydro-benzo[1,4]dioxin-6-yl)-methanone] | −30 |
| Cc1cc(C(F)F)n2nc(C(=O)N3[C@@H]4CC[C@H]3C[C@@H](c3ccc(F)cc3)C4)nc2n1 [Example 162, endo-(7-Difluoromethyl-5-methyl-[1,2,4]triazolo[1,5-a]pyrimidin-2-yl)-[3-(4-fluoro-phenyl)-8-aza-bicyclo[3.2.1]oct-8-yl]-methanone] | 96 |
| O=C(c1cc(Cl)c(O)c(Cl)c1)N1[C@@H]2CC[C@H]1C[C@@H](c1ccc(F)cc1)C2 [Example 163, endo-(3,5-Dichloro-4-hydroxy-phenyl)-[3-(4-fluoro-phenyl)-8-aza-bicyclo[3.2.1]oct-8-yl]-methanone] | −7 |
| Cc1cc(C(=O)N2[C@@H]3CC[C@H]2C[C@@H](c2ccc(F)cc2)C3)cc(C)c1O [Example 164, endo-[3-(4-Fluoro-phenyl)-8-aza-bicyclo[3.2.1]oct-8-yl]-(4-hydroxy-3,5-dimethyl-phenyl)-methanone] | −29 |
| COc1ccc(C(=O)N2[C@@H]3CC[C@H]2C[C@@H](c2ccc(F)cc2)C3)cc1Cl [Example 165, endo-(3-Chloro-4-methoxy-phenyl)-[3-(4-fluoro-phenyl)-8-aza-bicyclo[3.2.1]oct-8-yl]-methanone] | 2 |
| Cc1cc(C(=O)N2[C@@H]3CC[C@H]2C[C@@H](c2ccc(F)cc2)C3)ccc1O [Example 166, endo-[3-(4-Fluoro-phenyl)-8-aza-bicyclo[3.2.1]oct-8-yl]-(4-hydroxy-3-methyl-phenyl)-methanone] | −33 |
| O=C(c1ccc(O)c(Cl)c1)N1[C@@H]2CC[C@H]1C[C@@H](c1ccc(F)cc1)C2 [Example 167, endo-(3-Chloro-4-hydroxy-phenyl)-[3-(4-fluoro-phenyl)-8-aza-bicyclo[3.2.1]oct-8-yl]-methanone] | −22 |
| COc1c(F)cc(C(=O)N2[C@@H]3CC[C@H]2C[C@@H](c2ccc(F)cc2)C3)cc1F [Example 168, endo-(3,5-Difluoro-4-methoxy-phenyl)-[3-(4-fluoro-phenyl)-8-aza-bicyclo[3.2.1]oct-8-yl]-methanone] | 6 |
| O=C(c1ccc(O)c(F)c1)N1[C@@H]2CC[C@H]1C[C@@H](c1ccc(F)cc1)C2 [Example 169, endo-(3-Fluoro-4-hydroxy-phenyl)-[3-(4-fluoro-phenyl)-8-aza-bicyclo[3.2.1]oct-8-yl]-methanone] | −25 |
| COc1ccc(C(=O)N2[C@@H]3CC[C@H]2C[C@@H](c2ccc(F)cc2)C3)cc1C [Example 170, endo-[3-(4-Fluoro-phenyl)-8-aza-bicyclo[3.2.1]oct-8-yl]-(4-methoxy-3-methyl-phenyl)-methanone] | −34 |
| COc1cc(C(=O)N2[C@@H]3CC[C@H]2C[C@@H](c2ccc(F)cc2)C3)ccc1O [Example 171, endo-[3-(4-Fluoro-phenyl)-8-aza-bicyclo[3.2.1]oct-8-yl]-(4-hydroxy-3-methoxy-phenyl)-methanone] | −26 |

Source: patent publication US8609690B2, “Aryl- and heteroarylcarbonyl derivatives of substituted nortropanes, medicaments containing such compounds and their use” (Boehringer Ingelheim International GmbH, priority 2008, dated 2013)
